{
  "source": "the supplement of paper PMC10307832",
  "assay_in_all_cases": "relative viability (nuclei count vs DMSO), 5 days (fraction); higher = more cells survive",
  "key": {"[1]": {"compound": "CCOC1=CC=CC=C1N=NC2=C(NN(C2=O)C3=NC(=CS3)C4=CC=CC=C4)C [BAM7] + CC(C)C[C@H](NC(=O)[C@H](Cc1ccccc1)NC(=O)c1cnccn1)B(O)O [Bortezomib] (partner 0.002 µM)", "summary_of_the_method": "(§1)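 Relative viability was taken as the ratio of nuclei in treated wells to nuclei in vehicle wells. Lung cancer cell lines in 1536-well plates received compounds by pin tool one day after seeding, either one drug alone or a fixed anchor-drug dose plus five library-drug doses (not always all listed) in √10 steps. Nuclei were counted on 4× images after 5 days of treatment, and values are medians of duplicate plates.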"}, "[2]": {"compound": "CCOC1=CC=CC=C1N=NC2=C(NN(C2=O)C3=NC(=CS3)C4=CC=CC=C4)C [BAM7] + O=C(c1cc(Cc2n[nH]c(=O)c3ccccc23)ccc1F)N1CCN(C(=O)C2CC2)CC1 [Olaparib] (partner 8 µM)", "summary_of_the_method": "as §1"}, "[3]": {"compound": "CCn1c(-c2nonc2N)nc2c(C#CC(C)(C)O)ncc(OC[C@H]3CCCNC3)c21 + C[C@@H](Oc1cc(-c2cnn(C3CCNCC3)c2)cnc1N)c1c(Cl)ccc(F)c1Cl [Crizotinib] (partner 1 µM)", "summary_of_the_method": "as §1"}, "[4]": {"compound": "CCOC1=CC=CC=C1N=NC2=C(NN(C2=O)C3=NC(=CS3)C4=CC=CC=C4)C [BAM7] + CCNC(=O)c1noc(-c2cc(C(C)C)c(O)cc2O)c1-c1ccc(CN2CCOCC2)cc1 [Luminespib] (partner 0.01 µM)", "summary_of_the_method": "as §1"}},
  "data": [
    {"cell line": "UMC-11", "values": [
      {"measurement": "relative viability", "setting": "[1]; first compound 0.5 µM", "result": 0.78},
      {"measurement": "relative viability", "setting": "[1]; first compound 5 µM", "result": 0.89},
      {"measurement": "relative viability", "setting": "[1]; first compound 15.81 µM", "result": 0.67},
      {"measurement": "relative viability", "setting": "[1]; first compound 50 µM", "result": 0.905},
      {"measurement": "relative viability", "setting": "[2]; first compound 0.5 µM", "result": 0.305},
      {"measurement": "relative viability", "setting": "[2]; first compound 5 µM", "result": 0.388},
      {"measurement": "relative viability", "setting": "[2]; first compound 15.81 µM", "result": 0.462},
      {"measurement": "relative viability", "setting": "[2]; first compound 50 µM", "result": 0.377},
      {"measurement": "relative viability", "setting": "[3]; first compound 0.01 µM", "result": 0.704},
      {"measurement": "relative viability", "setting": "[3]; first compound 0.03162 µM", "result": 0.695},
      {"measurement": "relative viability", "setting": "[3]; first compound 0.1 µM", "result": 0.65},
      {"measurement": "relative viability", "setting": "[3]; first compound 0.3162 µM", "result": 0.645},
      {"measurement": "relative viability", "setting": "[3]; first compound 1 µM", "result": 0.547},
      {"measurement": "relative viability", "setting": "[4]; first compound 0.5 µM", "result": 1.07},
      {"measurement": "relative viability", "setting": "[4]; first compound 5 µM", "result": 1.11},
      {"measurement": "relative viability", "setting": "[4]; first compound 15.81 µM", "result": 1.1},
      {"measurement": "relative viability", "setting": "[4]; first compound 50 µM", "result": 0.991}
    ]}
  ]
}
